Results from patent US20040166509A1, “Detecting hormonally active compounds” (priority 2002, published 2004).

System: liver cDNAs of adult male LMB
Assay: LMB gene arrays of SSH-derived cDNAs: liver of fish treated with androgens
Format: in vivo, largemouth bass (LMB)
Conditions: DHT 62.5 μg/g, 11-KT 20 μg/g vs DMSO
Experimental: For each cDNA clone, the general background of each membrane was subtracted from the average value of the duplicate spots on the membrane. The values were then normalized to the average value of seven cDNA clones specific to ribosomal genes and the fold change calculated by dividing the mean of each treatment by the mean of the control. Those genes which changed by 2-fold or more were graphed. Significant differences (p<0.05) were determined by ANOVA and secondary testing was done by using […].

## C[C@]12CCC(=O)C[C@@H]1CC[C@@H]1[C@@H]2CC[C@]2(C)[C@@H](O)CC[C@@H]12 [DHT, dihydrotestosterone]
  24-1 (LOC L1) change: down
  53-1 (LOC B2) change: down
  68-1 (LOC C2) change: down
  97-8 (LOC F2) change: up (Those genes which changed by 2-fold or more were graphed)
  ALDOLASE B (LOC K2) change: down
  ALPHA 1 ANTI-TRYPSIN (LOC L2) change: down
  ALPHA TUBULIN (LOC M2) change: down
  APOL[…] (LOC C3) change: down
  ATP SYNTHASE (LOC K7) change: up (Those genes which changed by 2-fold or more were graphed)
  ATPASE 6 (LOC E3) change: up (Those genes which changed by 2-fold or more were graphed)
  ATPASE SUBUNIT 6 (LOC F9) change: up (Those genes which changed by 2-fold or more were graphed)
  COMPLEMENT C3 (LOC L3) change: down
  CYSTATIN (LOC O3) change: down
  ER GAMMA 5′ 2F (LOC L14) change: down
  EST DHT64 (LOC D4) change: up (Those genes which changed by 2-fold or more were graphed)
  EST P4_06 (LOC L8) change: up (Those genes which changed by 2-fold or more were graphed)
  EST P4_D08 (LOC N8) change: up (Those genes which changed by 2-fold or more were graphed)
  EST SEASONAL 9 (LOC D13) change: up (Those genes which changed by 2-fold or more were graphed)
  EST SEASONAL 11 (LOC O6) change: down
  EST SEASONAL 12 (LOC B8) change: up (Those genes which changed by 2-fold or more were graphed)
  EST SEASONAL 42 (LOC H10) change: down
  EST SEASONAL 51 (LOC K11) change: down
  EST SEASONAL 55 (LOC M4) change: down
  EST SEASONAL 56 (LOC F12) change: up (Those genes which changed by 2-fold or more were graphed)
  EST SEASONAL 62 (LOC B14) change: up (Those genes which changed by 2-fold or more were graphed)
  EST SEASONAL 64 (LOC H7) change: up (Those genes which changed by 2-fold or more were graphed)
  EST SEASONAL 72 (LOC K12) change: down
  EST SEASONAL 88 (LOC E12) change: up (Those genes which changed by 2-fold or more were graphed)
  EST SEASONAL 90 (LOC L9) change: down
  EST SEASONAL F17 (LOC B9) change: down
  EST SEASONAL F21 (LOC O13) change: down
  ESTDHT60 (LOC F5) change: down
  ESTP4_C04 (LOC G9) change: down
  ESTP4_E01 (LOC K5) change: down
  ESTP4_E06 (LOC D6) change: down
  ESTP4_H07 (LOC K13) change: up (Those genes which changed by 2-fold or more were graphed)
  GP3 11C (LOC K1) change: down
  G[…] (LOC G5) change: down-regulated and down
  HAPTOGLOBIN (LOC I5) change: down
  HEPCIDIN (LOC J5) change: down
  IGF-I (LOC M5) change: down
  LDL RC (LOC J10) change: down
  LMB24-1 (Unknown) differentially expressed by androgens: dn-reg DHT;
  LMB53-1 (unknown) differentially expressed by androgens: Down-reg. E2;
  LMB68-1 (hypothetical protein) differentially expressed by: Dn-reg DHT
  LMB97 choriogenin-3 differentially expressed by androgens: Up-reg E2;
  LMB112-1 cathepsin (Aspartic protease) differentially expressed by androgens: up-reg E; NP:
  LMB151 vitellogenin receptor differentially expressed by: Dn-reg
  LMB CIS-RETIN DEHYDRO (cis-retinol dehydrogenase) differentially expressed by: up-reg DHT
  LMB EST--SEASONAL_64 differentially expressed by: up-reg DHT;
  LMB EST--SEASONAL_72 differentially expressed by: Dn-reg DHT;
  LMB EST--SEASONAL_88 differentially expressed by: up-reg DHT;
  LMB EST--SEASONAL_90 differentially expressed by: dn-reg DHT
  LMB EST--SEASONAL_F21 differentially expressed by: Dn-reg DHT
  LMB EST-SEASONAL_55 differentially expressed by: Dn-reg 11-KT;
  LMB EST-SEASONAL_56 differentially expressed by: up-reg DHT;
  LMB GLUT-PEROX III (Glutathione peroxidase III) differentially expressed by: Dn-reg DHT
  LMB LIV-REGER-PROT differentially expressed by: down by DHT
  LMB RIKEN 1110001M01 differentially expressed by: up by 11KT;
  LMB_ALPHA-TUBULIN (alpha tubulin) differentially expressed by: Dn-reg 11-kt;
  LMB_ATPASE 6 (ATPase subunit 6) differentially expressed by: up-reg DHT
  LMB_COMPLEMENT-C3 (Complement C3 precursor) differentially expressed by: Dn-reg DHT;
  LMB_EST-SEASONAL_09 differentially expressed by: up-reg DHT;
  LMB_EST-SEASONAL_12 differentially expressed by: up-reg DHT
  LMB_EST-SEASONAL_51 differentially expressed by: dn 11-KT;
  LMB_ESTDHT_62 differentially expressed by: up-reg DHT;
  LMB_ESTP4-E01 differentially expressed by: down by DHT
  LMB_HAPTOGLOBIN (Haptoglobin) differentially expressed by: Dn-reg DHT
  LMB_HEPCIDIN (Hepcidin precursor) differentially expressed by: dn-reg DHT
  LMB_LDL RC (LDL receptor) differentially expressed by: Dn-reg DHT;
  LMB_LECTIN STL2 (Rhamnose binding lectin STL2) differentially expressed by: up-reg DHT
  LMB_MITOCHON-ATP-SYNTHASE (ATP synthase alpha chain mitochondrial precursor) differentially expressed by: up-reg DHT
  LMB_RXR INTERACT PROT (Retinoid X receptor interacting protein) differentially expressed by: Dn-reg 11-KT;
  LMB_SOL-CAR-25A#5 (solute carrier family 25 alpha member 5) differentially expressed by: up-reg DHT;
  LMB_SSAT (SSAT) differentially expressed by: up-reg DHT;
  LMB_ZPC1 (ZPC1) differentially expressed by: up-reg DHT;
  LMB_ZPC4 (ZPC4) differentially expressed by: up-reg DHT;
  PTTP (LOC O10) change: up (Those genes which changed by 2-fold or more were graphed)
  RETINOL DEHYDROGENASE (LOC M11) change: up (Those genes which changed by 2-fold or more were graphed)
  RHAMNOSE BINDING LECTIN (LOC G13) change: up (Those genes which changed by 2-fold or more were graphed)
  RIKEN 1110001M01 (LOC O11) change: up (Those genes which changed by 2-fold or more were graphed)
  RIKEN 2700038C09 (LOC D12) change: down
  RXR I[…] (LOC L11) change: down
  SOLUTE CARRIER (LOC B13) change: up (Those genes which changed by 2-fold or more were graphed)
  SSAT (LOC C13) change: up (Those genes which changed by 2-fold or more were graphed)
  TFIID (change to liver regeration related protein) (LOC M12) change: down
  TFIIIA (LOC J13) change: up (Those genes which changed by 2-fold or more were graphed)
  UNNAMED PROTEIN (LOC C14) change: up (Those genes which changed by 2-fold or more were graphed)
  VTG PRECURSOR (LOC D14) change: up (Those genes which changed by 2-fold or more were graphed)
  VTG RC (LOC M14) change: down
  ZPC1 (LOC H14) change: up (Those genes which changed by 2-fold or more were graphed)
  ZPC4 (LOC I14) change: up (Those genes which changed by 2-fold or more were graphed)
  warm water acclim (LOC E14) change: up (Those genes which changed by 2-fold or more were graphed)

## C[C@]12CC(=O)[C@H]3[C@@H](CCC4=CC(=O)CC[C@@]43C)[C@@H]1CC[C@@H]2O [11-KT, 11-ketotestosterone]
  24-1 (LOC L1) change: down
  ALPHA TUBULIN (LOC M2) change: down
  COMPLEMENT C3 (LOC L3) change: down
  CYSTATIN (LOC O3) change: down-regulated
  ER GAMMA 5′ 2F (LOC L14) change: down
  EST SEASONAL 9 (LOC D13) change: up (Those genes which changed by 2-fold or more were graphed)
  EST SEASONAL 51 (LOC K11) change: down
  EST SEASONAL 55 (LOC M4) change: down
  EST SEASONAL 62 (LOC B14) change: up (Those genes which changed by 2-fold or more were graphed)
  EST SEASONAL 64 (LOC H7) change: up (Those genes which changed by 2-fold or more were graphed)
  EST SEASONAL 72 (LOC K12) change: down
  EST SEASONAL F21 (LOC O13) change: down
  ESTP4_H07 (LOC K13) change: up (Those genes which changed by 2-fold or more were graphed)
  GP3 11C (LOC K1) change: down
  LDL RC (LOC J10) change: down
  LMB24-1 (Unknown) differentially expressed by androgens: dn-reg DHT;
  LMB151 vitellogenin receptor differentially expressed by: Dn-reg
  LMB CYSTATIN-PREC (Cystatin precursor) differentially expressed by: Dn-reg 11-KT
  LMB EST--SEASONAL_64 differentially expressed by: up-reg DHT;
  LMB EST--SEASONAL_72 differentially expressed by: Dn-reg DHT;
  LMB EST--SEASONAL_F17 differentially expressed by: Dn-reg 11-KT
  LMB EST-SEASONAL_55 differentially expressed by: Dn-reg 11-KT;
  LMB EST-SEASONALf17 differentially expressed by: down by 11KT
  LMB RIKEN 1110001M01 differentially expressed by: up by 11KT;
  LMB_ALPHA-TUBULIN (alpha tubulin) differentially expressed by: Dn-reg 11-kt;
  LMB_COMPLEMENT-C3 (Complement C3 precursor) differentially expressed by: Dn-reg DHT;
  LMB_ER-GAMMA ESTROGEN RECEPTOR GAMMA differentially expressed by (11-KT): Dn-reg 11-KT;
  LMB_EST-SEASONAL_09 differentially expressed by: up-reg DHT;
  LMB_EST-SEASONAL_11 differentially expressed by: dn-reg 11-KT
  LMB_EST-SEASONAL_51 differentially expressed by: dn 11-KT;
  LMB_ESTDHT64 differentially expressed by: up by 11KT
  LMB_ESTDHT_62 differentially expressed by: up-reg DHT;
  LMB_LDL RC (LDL receptor) differentially expressed by: Dn-reg DHT;
  LMB_RXR INTERACT PROT (Retinoid X receptor interacting protein) differentially expressed by: Dn-reg 11-KT;
  LMB_SOL-CAR-25A#5 (solute carrier family 25 alpha member 5) differentially expressed by: up-reg DHT;
  LMB_SSAT (SSAT) differentially expressed by: up-reg DHT;
  LMB_WARM-WATER ACC PROTEIN (Warm water acclimation-related protein) differentially expressed by: up-reg 11-KT
  LMB_ZPC1 (ZPC1) differentially expressed by: up-reg DHT;
  LMB_ZPC4 (ZPC4) differentially expressed by: up-reg DHT;
  PTTP (LOC O10) change: up-
  RETINOL DEHYDROGENASE (LOC M11) change: up (Those genes which changed by 2-fold or more were graphed)
  RIKEN 1110001M01 (LOC O11) change: up (Those genes which changed by 2-fold or more were graphed)
  RXR INTERACTING PROT (LOC L11) change: down
  SOLUTE CARRIER (LOC B13) change: up (Those genes which changed by 2-fold or more were graphed)
  SSAT (LOC C13) change: up (Those genes which changed by 2-fold or more were graphed)
  TFIID (change to liver regeration related protein) (LOC M12) change: down
  VTG PRECURSOR (LOC D14) change: up (Those genes which changed by 2-fold or more were graphed)
  VTG RC (LOC M14) change: down
  ZPC1 (LOC H14) change: up (Those genes which changed by 2-fold or more were graphed)
  ZPC4 (LOC I14) change: up (Those genes which changed by 2-fold or more were graphed)
  warm water acclim (LOC E14) change: up (Those genes which changed by 2-fold or more were graphed)
